Laboratory results published in ChEMBL document CHEMBL1201861, “Genomics of Drug Sensitity in Cancer screening data, Wellcome Trust Sanger Institute”.

Key:
Assay in all cases: cells
Format in all cases: functional, cell-based, Homo sapiens
[1] = tested on: NCI-H1755; details: Homo sapiens, NCI-H1755;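 note: cell viability readout used to measure growth inhibition of NCI-H1755 cells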
Description: SANGER: Inhibition of human NCI-H1755 cell growth in a cell viability assay.

[2] = tested on: KU-19-19; details: Homo sapiens, KU-19-19
Description: SANGER: Inhibition of human KU-19-19 cell growth in a cell viability assay.

[3] = tested on: DoTc2-4510; details: Homo sapiens, DoTc2-4510
[4] = tested on: CFPAC-1; details: Homo sapiens, CFPAC-1;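 note: cell viability readout used to gauge suppression of CFPAC-1 cell proliferation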
Description: SANGER: Inhibition of human CFPAC-1 cell growth in a cell viability assay.

[5] = tested on: OAW-42; details: Homo sapiens, OAW-42;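 note: growth inhibition of OAW-42 cells, read out with a cell viability assay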
Description: SANGER: Inhibition of human OAW-42 cell growth in a cell viability assay.

[6] = tested on: A2058; details: Homo sapiens, A2058;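 note: reduction of A2058 cell growth, read out with a viability assay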
Description: SANGER: Inhibition of human A2058 cell growth in a cell viability assay.

[7] = tested on: Huh-7; details: Homo sapiens, Huh-7;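 note: HuH-7 cell growth inhibition, read out with a cell viability assay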
Description: SANGER: Inhibition of human HuH-7 cell growth in a cell viability assay.

[8] = tested on: CaR-1; details: Homo sapiens, CaR-1;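 note: growth inhibition of human CaR-1 cancer cells, read out with a cell viability assay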
Description: SANGER: Inhibition of human CaR-1 cell growth in a cell viability assay.

[9] = tested on: KYSE-270; details: Homo sapiens, KYSE-270;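 note: cell growth inhibition measured with a viability assay in the human KYSE-270 line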
Description: SANGER: Inhibition of human KYSE-270 cell growth in a cell viability assay.

[10] = tested on: TYK-nu; details: Homo sapiens, TYK-nu;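 note: growth inhibition of human TYK-nu cells, read out by a cell viability assay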
Description: SANGER: Inhibition of human TYK-nu cell growth in a cell viability assay.

[11] = tested on: BFTC-905; details: Homo sapiens, BFTC-905
Description: SANGER: Inhibition of human BFTC-905 cell growth in a cell viability assay.

[12] = tested on: SW13; details: Homo sapiens, SW13;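 note: IC50 is inhibition of SW13 cell growth, read out with a cell viability assay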
Description: SANGER: Inhibition of human SW13 cell growth in a cell viability assay.

[13] = tested on: MOLT-13; details: Homo sapiens, MOLT-13;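 note: IC50 for suppression of MOLT-13 cell growth, read out with a cell viability assay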
Description: SANGER: Inhibition of human MOLT-13 cell growth in a cell viability assay.

[14] = tested on: BT-20; details: Homo sapiens, BT-20;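 note: cell viability assay measuring suppression of growth in human BT-20 cells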
Description: SANGER: Inhibition of human BT-20 cell growth in a cell viability assay.

[15] = tested on: SK-MES-1; details: Homo sapiens, SK-MES-1;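 note: growth inhibition of human SK-MES-1 cells, read out with a cell viability assay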
Description: SANGER: Inhibition of human SK-MES-1 cell growth in a cell viability assay.

[16] = tested on: COLO-679; details: Homo sapiens, COLO-679
Description: SANGER: Inhibition of human COLO-679 cell growth in a cell viability assay.

[17] = tested on: NCI-H1573; details: Homo sapiens, NCI-H1573;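 note: growth inhibition of NCI-H1573 cells, read out with a cell viability assay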
Description: SANGER: Inhibition of human NCI-H1573 cell growth in a cell viability assay.

[18] = tested on: DOK; details: Homo sapiens, DOK;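 note: cell viability assay read-out, values reflect inhibition of cell growth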
Description: SANGER: Inhibition of human DOK cell growth in a cell viability assay.

[19] = tested on: LCLC-97TM1; details: Homo sapiens, LCLC-97TM1;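 note: cell viability assay measuring growth inhibition of human LCLC-97TM1 cells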
Description: SANGER: Inhibition of human LCLC-97TM1 cell growth in a cell viability assay.

[20] = tested on: NCI-H441; details: Homo sapiens, NCI-H441;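 note: growth inhibition of NCI-H441 cells, read out with a cell viability assay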
Description: SANGER: Inhibition of human NCI-H441 cell growth in a cell viability assay.

[21] = tested on: FTC-133; details: Homo sapiens, FTC-133
[22] = tested on: MDA-MB-415; details: Homo sapiens, MDA-MB-415
[23] = tested on: KP-N-YN; details: Homo sapiens, KP-N-YN;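 note: growth inhibition of KP-N-YN cells, read out with a cell viability assay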
Description: SANGER: Inhibition of human KP-N-YN cell growth in a cell viability assay.

[24] = tested on: NCI-H2030; details: Homo sapiens, NCI-H2030;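 note: growth inhibition of human NCI-H2030 cells, read out by a cell viability assay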
Description: SANGER: Inhibition of human NCI-H2030 cell growth in a cell viability assay.

[25] = tested on: HOP-92; details: Homo sapiens, HOP-92;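 note: cell viability readout, with IC50 reflecting inhibition of HOP-92 cell growth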
Description: SANGER: Inhibition of human HOP-92 cell growth in a cell viability assay.

[26] = tested on: COLO-741; details: Homo sapiens, COLO-741
Description: SANGER: Inhibition of human COLO-741 cell growth in a cell viability assay.

[27] = tested on: BPH-1; details: Homo sapiens, BPH-1;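 note: cell viability assay measuring growth inhibition of human BPH-1 cells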
Description: SANGER: Inhibition of human BPH-1 cell growth in a cell viability assay.

[28] = tested on: 8305C; details: Homo sapiens, 8305C
Description: SANGER: Inhibition of human 8305C cell growth in a cell viability assay.

[29] = tested on: SAOS-2; details: Homo sapiens, SAOS-2;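 note: growth inhibition of human Saos-2 cells determined by a cell viability assay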
Description: SANGER: Inhibition of human Saos-2 cell growth in a cell viability assay.

[30] = tested on: MDA-MB-231; details: Homo sapiens, MDA-MB-231
Description: SANGER: Inhibition of human MDA-MB-231 cell growth in a cell viability assay.

[31] = tested on: NCI-H1623; details: Homo sapiens, NCI-H1623;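 note: cell viability assay used as the read-out for growth inhibition of NCI-H1623 cells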
Description: SANGER: Inhibition of human NCI-H1623 cell growth in a cell viability assay.

[32] = tested on: NCI-H1993; details: Homo sapiens, NCI-H1993;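 note: growth inhibition of the cancer cell line, assessed with a cell viability assay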
Description: SANGER: Inhibition of human NCI-H1993 cell growth in a cell viability assay.

[33] = tested on: OE33; details: Homo sapiens, OE33;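 note: growth inhibition of human OE33 cells, measured by a cell viability assay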
Description: SANGER: Inhibition of human OE33 cell growth in a cell viability assay.

[34] = tested on: EGI-1; details: Homo sapiens, EGI-1;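 note: cell viability readout used to gauge growth inhibition of EGI-1 cells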
Description: SANGER: Inhibition of human EGI-1 cell growth in a cell viability assay.

[35] = tested on: S-117; details: Homo sapiens, S-117
Description: SANGER: Inhibition of human S-117 cell growth in a cell viability assay.

[36] = tested on: MFE-280; details: Homo sapiens, MFE-280;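 note: growth inhibition of MFE-280 cells, determined with a cell viability readout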
Description: SANGER: Inhibition of human MFE-280 cell growth in a cell viability assay.

Work on `CN(C)C(=N)NC(=N)N` [METFORMIN] yielded an IC50 [1] greater than 20000 µM, an IC50 [2] of 9610 µM and an IC50 [3] greater than 20000 µM. For the same compound, the IC50 [4] was greater than 20000 µM, the IC50 [5] was 18100 µM and the IC50 [6] was greater than 20000 µM. It also gave an IC50 [7] of 15500 µM, an IC50 [8] greater than 20000 µM and an IC50 [9] greater than 20000 µM. The IC50 [10] was 16500 µM, the IC50 [11] was 11700 µM and the IC50 [12] was 10000 µM. For the same compound, the IC50 [13] was 556 µM, the IC50 [14] was 15300 µM and the IC50 [15] was greater than 20000 µM. The IC50 [16] was greater than 20000 µM, the IC50 [17] was 16900 µM and the IC50 [18] was 4250 µM. For the same compound, the IC50 [19] was 3170 µM, the IC50 [20] was greater than 20000 µM and the IC50 [21] was greater than 20000 µM. It also gave an IC50 [22] of 16800 µM.
`CC1(C)CNc2cc(NC(=O)c3cccnc3NCc3ccncc3)ccc21` [MOTESANIB] gave an IC50 [1] greater than 2 µM, an IC50 [2] greater than 2 µM and an IC50 [3] greater than 2 µM. The IC50 [4] was greater than 2 µM, the IC50 [23] was greater than 2 µM and the IC50 [5] was greater than 2 µM. It also gave an IC50 [6] greater than 2 µM, an IC50 [24] greater than 2 µM and an IC50 [7] greater than 2 µM. For the same compound, the IC50 [8] was greater than 2 µM, the IC50 [9] was greater than 2 µM and the IC50 [10] was greater than 2 µM. For the same compound, the IC50 [11] was greater than 2 µM, the IC50 [12] was greater than 2 µM and the IC50 [25] was greater than 2 µM. The IC50 [13] was greater than 2 µM, the IC50 [14] was greater than 2 µM and the IC50 [26] was greater than 2 µM. For the same compound, the IC50 [15] was greater than 2 µM, the IC50 [27] was greater than 2 µM and the IC50 [16] was greater than 2 µM. The IC50 [17] was greater than 2 µM, the IC50 [18] was greater than 2 µM and the IC50 [28] was greater than 2 µM. The IC50 [29] was greater than 2 µM, the IC50 [19] was greater than 2 µM and the IC50 [20] was greater than 2 µM. It also gave an IC50 [21] greater than 2 µM, an IC50 [30] greater than 2 µM and an IC50 [31] greater than 2 µM. The IC50 [32] was greater than 2 µM, the IC50 [33] was greater than 2 µM and the IC50 [34] was greater than 2 µM. For the same compound, the IC50 [35] was greater than 2 µM, the IC50 [36] was greater than 2 µM and the IC50 [22] was greater than 2 µM.
`Cn1cnc2c(F)c(Nc3ccc(Br)cc3Cl)c(C(=O)NOCCO)cc21` [SELUMETINIB] showed an IC50 [1] greater than 4 µM, an IC50 [2] of 3.42 µM and an IC50 [3] greater than 4 µM. It also gave an IC50 [4] greater than 4 µM, an IC50 [23] greater than 4 µM and an IC50 [5] greater than 4 µM. It also gave an IC50 [7] greater than 4 µM, an IC50 [8] greater than 4 µM and an IC50 [9] greater than 4 µM. It also gave an IC50 [10] greater than 4 µM, an IC50 [11] of 2.42 µM and an IC50 [25] greater than 4 µM. For the same compound, the IC50 [13] was greater than 4 µM, the IC50 [14] was greater than 4 µM and the IC50 [26] was 0.531 µM. For the same compound, the IC50 [15] was greater than 4 µM, the IC50 [27] was 0.182 µM and the IC50 [16] was 0.341 µM. It also gave an IC50 [17] greater than 4 µM, an IC50 [18] of 0.147 µM and an IC50 [28] greater than 4 µM. It also gave an IC50 [29] greater than 4 µM, an IC50 [19] of 1.03 µM and an IC50 [20] greater than 4 µM. It also gave an IC50 [21] greater than 4 µM, an IC50 [30] greater than 4 µM and an IC50 [31] greater than 4 µM. The IC50 [32] was greater than 4 µM, the IC50 [33] was greater than 4 µM and the IC50 [34] was 1.83 µM. It also gave an IC50 [35] greater than 4 µM, an IC50 [36] greater than 4 µM and an IC50 [22] greater than 4 µM.
